The values that follow come from PMC11813143, “HBV polymerase recruits the phosphatase PP1 to dephosphorylate HBc-Ser170 to complete encapsidation” (PLOS Pathogens, 2025).

The test system of this test is C-S170 Ab. Kind of test: ELISA binding of immobilized HBc CTD peptides to C-S170 Ab. Also noted: species or system rabbit. The note with it: Fig 1C; for O.D. Mean: mean of n = 2. The method, then: To quantify the binding specificity of C-S170 Ab with non-phosphorylated HBc-Ser170, a flat-bottomed 96-well plate was coated with 100 ng of various peptides, including the non-phosphorylated and phosphorylated peptides covering Ser150, Ser162 and Ser170, and then the C-S170 Ab was added to the wells. For the competition of various peptides to C-S170 Ab, the 96-well plate was coated with 100 ng of non-phosphorylated HBc-Ser170 peptide and then a preincubated mixture containing 100 ng of peptide and the C-S170 Ab was added to the wells. After incubation with rabbit IgG conjugated with HRP, TMB substrate and a stop solution were added. The absorbance at a wavelength of 450 nm (A450) with a reference wavelength of 650 nm was measured using a microplate reader. GraphPad Prism 5 software was used to generate bar graphs and calculate Kd values, binding percentages, and inhibition percentages.
(In general: An ELISA detects its analyte on a solid surface through an enzyme-linked reagent.)

Where no end group is shown, it is not given here.

Turning to PRRRRSQSPRRRR [Ser170], the “O.D. Mean” value turned out to be 0.008 ([Ab] 0.0001 ng/mL), 0.032 ([Ab] 0.001 ng/mL), 0.271 ([Ab] 0.01 ng/mL) and 1.801 ([Ab] 0.1 ng/mL). In addition, the O.D. turned out to be 0.008 ([Ab] 0.0001 ng/mL, replicate 1); 0.008 ([Ab] 0.0001 ng/mL, replicate 2); 0.034 ([Ab] 0.001 ng/mL, replicate 1); 0.03 ([Ab] 0.001 ng/mL, replicate 2); 0.255 ([Ab] 0.01 ng/mL, replicate 1); 0.288 ([Ab] 0.01 ng/mL, replicate 2). Moreover, the O.D. by setting is: ([Ab] 0.1 ng/mL, replicate 1) 1.753; ([Ab] 0.1 ng/mL, replicate 2) 1.85.
